Measured values taken from patent publication US11712055B2, “Stevia composition” (PURECIRCLE SDN. BHD., priority 2011, dated 2023).

Columns and labels:
[1] = cited from earlier work; for times sweeter than sucrose: Tanaka 1987, Phillips 1989; for times sweeter than sucrose (sensory evaluations): Crammer and Ikan 1986
Water solubility = assay type: physicochemical; settings: in water at 25° C.
[2] = Chang and Cook 1983; cited from earlier work
[3] = Kinghorn 2002; cited from earlier work

C=C1C[C@@]23CC[C@H]4[C@@](C)(CCC[C@@]4(C)C(=O)O[C@@H]4O[C@H](CO)[C@@H](O)[C@H](O)[C@H]4O)[C@@H]2CC[C@]1(O[C@@H]1O[C@H](CO)[C@@H](O)[C@H](O)[C@H]1O[C@@H]1O[C@@H](C)[C@H](O)[C@@H](O)[C@H]1O)C3 [Dulcoside A]
times sweeter than sucrose [1]: 30 times

C=C1CC23CCC4C(C)(C(=O)[O-])CCCC4(C)C2CCC1(OC1OC(CO)C(O)C(OC2OC(CO)C(O)C(O)C2O)C1OC1OC(CO)C(O)C(O)C1O)C3.[K+] (stereo not shown) [Example 5, reb B potassium salt]
water solubility of obtained material (Water solubility): about 0.1 % (w/v)

C=C1C[C@@]23CC[C@H]4[C@@](C)(CCC[C@@]4(C)C(=O)O[C@@H]4O[C@H](CO)[C@@H](O)[C@H](O)[C@H]4O)[C@@H]2CC[C@]1(O[C@@H]1O[C@H](CO)[C@@H](O)[C@H](O[C@@H]2O[C@H](CO)[C@@H](O)[C@H](O)[C@H]2O)[C@H]1O[C@@H]1O[C@H](CO)[C@@H](O)[C@H](O)[C@H]1O)C3 [Reb A, rebaudioside A]
stability in carbonated beverages [2]: heat and pH stability | times sweeter than sucrose (sensory evaluations) [1]: 350-450 times

C=C1C[C@@]23CC[C@H]4[C@@](C)(CCC[C@@]4(C)C(=O)O[C@@H]4O[C@H](CO)[C@@H](O)[C@H](O)[C@H]4O)[C@@H]2CC[C@]1(O[C@@H]1O[C@H](CO)[C@@H](O)[C@H](O)[C@H]1O[C@@H]1O[C@H](CO)[C@@H](O)[C@H](O)[C@H]1O)C3 [stevioside]
stability in carbonated beverages [2]: heat and pH stability | times sweeter than sucrose [1]: 110-270 times

Rebaudioside B [reb B]
water solubility (reported) [3]: about 0.1% | times sweeter than sucrose (sensory evaluations) [1]: 300-350 times

rebaudioside B [Example 3]
water solubility of obtained material (Water solubility): about 0.1 % (w/v)

rebaudioside C
times sweeter than sucrose [1]: 40-60 times
